Values of other authors as cited in PubChem BioAssay AID1259409 (Chemical Carcinogenesis Research Information System (CCRIS), 2018).

System: rodent chemically induced tumor inhibition, incidence and multiplicity
Assay: CCRIS tumor inhibitor studies
Settings: Promoter: NONE USED

Cc1cc(C(C)(C)C)c(O)c(C(C)(C)C)c1
tumour outcome (control, treated, inhibition, significance) (Carcinogen: N-BIS(2-HYDROXYPROPYL)NITROSAMINE, 53609-64-6, Dose [Inhibitor]: 0, 1% IN DIET FOR 30 WK BEGINNING POST CARCINOGEN TREATMENT (STUDY DURATION: 32 WK), Route [Inhibitor]: ORAL, Species: RAT, Strain/Sex: F344/MALE, Target Tissue: Type of Lesion: LUNG: ADENOMA, Dose [Carcinogen]: 0.1% IN DRINKING WATER FOR 2 WK): 100%, 85%, 15%, not calculated | tumour outcome (control, treated, inhibition, significance) (Carcinogen: N-BIS(2-HYDROXYPROPYL)NITROSAMINE, 53609-64-6, Dose [Inhibitor]: 0, 1% IN DIET FOR 30 WK BEGINNING POST CARCINOGEN TREATMENT (STUDY DURATION: 32 WK), Route [Inhibitor]: ORAL, Species: RAT, Strain/Sex: F344/MALE, Target Tissue: Type of Lesion: LUNG: CARCINOMA, Dose [Carcinogen]: 0.1% IN DRINKING WATER FOR 2 WK): 45%, 5%, 89%, p<0.01 | tumour outcome (control, treated, inhibition, significance) (Carcinogen: N-BIS(2-HYDROXYPROPYL)NITROSAMINE, 53609-64-6, Dose [Inhibitor]: 0, 1% IN DIET FOR 30 WK BEGINNING POST CARCINOGEN TREATMENT (STUDY DURATION: 32 WK), Route [Inhibitor]: ORAL, Species: RAT, Strain/Sex: F344/MALE, Target Tissue: Type of Lesion: THYROID: ADENOMA, Dose [Carcinogen]: 0.1% IN DRINKING WATER FOR 2 WK): 5%, 60%, -1100%, not calculated | tumour outcome (control, treated, inhibition, significance) (Carcinogen: N-BIS(2-HYDROXYPROPYL)NITROSAMINE, 53609-64-6, Dose [Inhibitor]: 0, 1% IN DIET FOR 30 WK BEGINNING POST CARCINOGEN TREATMENT (STUDY DURATION: 32 WK), Route [Inhibitor]: ORAL, Species: RAT, Strain/Sex: F344/MALE, Target Tissue: Type of Lesion: THYROID: CARCINOMA, Dose [Carcinogen]: 0.1% IN DRINKING WATER FOR 2 WK): 20%, 15%, 25%, not calculated | tumour outcome (control, treated, inhibition, significance) (Carcinogen: N-METHYL-N'-NITRO-N-NITROSOGUANIDINE, 70-25-7, N-ETHYL-N-HYDROXYETHYLNITROSAMINE, 13147-25-6, N-METHYLBENZYLNITROSAM, Carcinogen: N-METHYL-N'-NITRO-N-NITROSOGUANIDINE, 70-25-7, N-ETHYL-N-HYDROXYETHYLNITROSAMINE, 13147-25-6, N-METHYLBENZYLNITROSAM, Dose [Inhibitor]: 0, 0.7% IN DIET FOR 36 WK (STUDY DURATION: 36 WK), Route [Inhibitor]: ORAL, Species: RAT, Strain/Sex: F344/MALE, Target Tissue: Type of Lesion: COLON: CARCINOMA, Dose [Carcinogen]: 100 MG/KG BW MNNG ONCE, 750 MG/KG BW EHEN ONCE, 0.5 MG/KG BW MBN TWICE, 40 MG/KG BW DMH 4 TIMES, 0.05% DBN IN DRINKING W): 10/18 (56%), 0/18 (0%), 100%, p<0.01 | tumour outcome (control, treated, inhibition, significance) (Carcinogen: N-METHYL-N'-NITRO-N-NITROSOGUANIDINE, 70-25-7, N-ETHYL-N-HYDROXYETHYLNITROSAMINE, 13147-25-6, N-METHYLBENZYLNITROSAM, Carcinogen: N-METHYL-N'-NITRO-N-NITROSOGUANIDINE, 70-25-7, N-ETHYL-N-HYDROXYETHYLNITROSAMINE, 13147-25-6, N-METHYLBENZYLNITROSAM, Dose [Inhibitor]: 0, 0.7% IN DIET FOR 36 WK (STUDY DURATION: 36 WK), Route [Inhibitor]: ORAL, Species: RAT, Strain/Sex: F344/MALE, Target Tissue: Type of Lesion: KIDNEY: RENAL CELL TUMOR, Dose [Carcinogen]: 100 MG/KG BW MNNG ONCE, 750 MG/KG BW EHEN ONCE, 0.5 MG/KG BW MBN TWICE, 40 MG/KG BW DMH 4 TIMES, 0.05% DBN IN DRINKING W): 8/18 (44%), 1/18 (6%), 86%, p<0.01 | outcome (Carcinogen: N-METHYL-N'-NITRO-N-NITROSOGUANIDINE, 70-25-7, N-ETHYL-N-HYDROXYETHYLNITROSAMINE, 13147-25-6, N-METHYLBENZYLNITROSAM, Carcinogen: N-METHYL-N'-NITRO-N-NITROSOGUANIDINE, 70-25-7, N-ETHYL-N-HYDROXYETHYLNITROSAMINE, 13147-25-6, N-METHYLBENZYLNITROSAM, Dose [Inhibitor]: 0, 0.7% IN DIET FOR 36 WK (STUDY DURATION: 36 WK), Route [Inhibitor]: ORAL, Species: RAT, Strain/Sex: F344/MALE, Target Tissue: Type of Lesion: THYROID GLAND: ADENOMA OR CARCINOMA, Dose [Carcinogen]: 100 MG/KG BW MNNG ONCE, 750 MG/KG BW EHEN ONCE, 0.5 MG/KG BW MBN TWICE, 40 MG/KG BW DMH 4 TIMES, 0.05% DBN IN DRINKING W): 0/18 (0%), 6/18 (33%), -333%, p<0.05 | tumour outcome (control, treated, inhibition, significance) (Carcinogen: N-METHYL-N-NITROSOUREA, 684-93-5, Dose [Inhibitor]: 0.3% IN DIET FROM WEANING ONWARD (STUDY DURATION: 6 MO AFTER CARCINOGEN ADMINISTRATION), Route [Inhibitor]: ORAL, Species: RAT, Strain/Sex: SPRAGUE-DAWLEY/FEMALE, Target Tissue: Type of Lesion: MAMMARY GLAND: ADENOCARCINOMA, Dose [Carcinogen]: SINGLE INJECTION VIA DORSAL TAIL VEIN AT 5 MG/100 G BODY WEIGHT. MNU WAS WET IN 3% ACETIC ACID + DISSOLVED IN WATER (DOU): 21/30 (70%), 22/30 (73%), -4%, not significant | tumour outcome (control, treated, inhibition, significance) (Carcinogen: N-METHYL-N-NITROSOUREA, 684-93-5, Dose [Inhibitor]: 0.3% IN HIGH POLYUNSATURATED FAT DIET DAILY STARTING 29 D BEFORE CARCINOGEN TREATMENT AND CONTINUING FOR THE DURATION OF, Route [Inhibitor]: ORAL, Species: RAT, Strain/Sex: SPRAGUE-DAWLEY/FEMALE, Target Tissue: Type of Lesion: MAMMARY GLAND: ADENOCARCINOMA, Dose [Carcinogen]: 5 MG/100 G BW ONCE AT 50 D OF AGE): 70%, 73%, -4%, not calculated | tumour outcome (control, treated, inhibition, significance) (Carcinogen: URETHANE, 51-79-6, Dose [Inhibitor]: 0.75% IN DIET 1/WK FOR 24 HR AFTER OVERNIGHT FAST FOR 8 WK 1 WK AFTER CARCINOGEN TREATMENT (STUDY DURATION: 4 MO), Route [Inhibitor]: ORAL, Species: MOUSE, Strain/Sex: STRAIN-A/MALE, Target Tissue: Type of Lesion: LUNG: TYPE II ALVEOLAR CELL TUMORS, CLARA CELL TUMORS, Dose [Carcinogen]: 250 MG/KG, ONCE AT 8 WK OF AGE): 85%, 91%, -7%, not significant | tumour outcome (control, treated, inhibition, significance) (Carcinogen: URETHANE, 51-79-6, Dose [Inhibitor]: 0.75% IN DIET 1/WK FOR 24 HR AFTER OVERNIGHT FAST FOR 8 WK 1 WK AFTER CARCINOGEN TREATMENT (STUDY DURATION: 4 MO), Route [Inhibitor]: ORAL, Species: MOUSE, Strain/Sex: STRAIN-A/MALE, Target Tissue: Type of Lesion: LUNG: TYPE II ALVEOLAR CELL TUMORS, CLARA CELL TUMORS, Dose [Carcinogen]: 500 MG/KG, ONCE AT 8 WK OF AGE): 100%, 100%, 0%, not significant | tumour outcome (control, treated, inhibition, significance) (Carcinogen: URETHANE, 51-79-6, Dose [Inhibitor]: 0.75% IN DIET 1/WK FOR 24 HR AFTER OVERNIGHT FAST FOR 8 WK BEGINNING 1 WK POST CARCINOGEN TREATMENT (STUDY DURATION: 4 M, Route [Inhibitor]: ORAL, Species: MOUSE, Strain/Sex: STRAIN A/MALE, Target Tissue: Type of Lesion: LUNG: TYPE II ALVEOLAR CELL TUMORS, CLARA CELL TUMORS, Dose [Carcinogen]: 500 MG/KG, ONCE AT 8 WK OF AGE): 100%, 97%, 3%, not significant | outcome (Carcinogen: URETHANE, 51-79-6, Dose [Inhibitor]: 0.75% IN DIET FOR 2 WK BEFORE CARCINOGEN TREATMENT (STUDY DURATION: 4 MO), Route [Inhibitor]: ORAL, Species: MOUSE, Strain/Sex: STRAIN-A/MALE, Target Tissue: Type of Lesion: LUNG: TYPE II ALVEOLAR CELL TUMORS, CLARA CELL TUMORS, Dose [Carcinogen]: 1000 MG/KG, ONCE): 100%, 100%, o%, not significant | tumour outcome (control, treated, inhibition, significance) (Carcinogen: URETHANE, 51-79-6, Dose [Inhibitor]: 0.75% IN DIET, DAILY BEGINNING 1 D AFTER CARCINOGEN TREATMENT FOR 8 WK (STUDY DURATION: 4 MO), Route [Inhibitor]: ORAL, Species: MOUSE, Strain/Sex: STRAIN-A/MALE, Target Tissue: Type of Lesion: LUNG: TYPE II ALVEOLAR CELL TUMORS, CLARA CELL TUMORS, Dose [Carcinogen]: 250 MG/KG, ONCE AT 8 WK OF AGE): 96%, 90%, 6%, not significant | tumour outcome (control, treated, inhibition, significance) (Carcinogen: URETHANE, 51-79-6, Dose [Inhibitor]: 0.75% IN DIET, DAILY BEGINNING 1 D AFTER CARCINOGEN TREATMENT FOR 8 WK (STUDY DURATION: 40 MO), Route [Inhibitor]: ORAL, Species: MOUSE, Strain/Sex: STRAIN-A/MALE, Target Tissue: Type of Lesion: LUNG: TYPE II ALVEOLAR CELL TUMORS, CLARA CELL TUMORS, Dose [Carcinogen]: 500 MG/KG, ONCE AT 8 WK OF AGE): 100%, 100%, 0%, not significant | tumour outcome (control, treated, inhibition, significance) (Carcinogen: URETHANE, 51-79-6, Dose [Inhibitor]: 300 MG/KG 1 WK AFTER CARCINOGEN DOSE 1/WK FOR 8 WK (STUDY DURATION: 4 MO), Route [Inhibitor]: INTRAPERITONEAL, Species: MOUSE, Strain/Sex: STRAIN-A/MALE, Target Tissue: Type of Lesion: LUNG: TYPE II ALVEOLAR CELL TUMORS, CLARA CELL TUMORS, Dose [Carcinogen]: 500 MG/KG, ONCE AT 8 WK OF AGE): 97%, 100%, -3%, not significant
